Measurements published in ChEMBL document CHEMBL1147598, “1-(2-Naphthyl)-1H-pyrazole-5-carboxylamides as potent factor Xa inhibitors. Part 3: Design, synthesis and SAR of orally bioavailable benzamidine-P4 inhibitors” (Bioorg Med Chem Lett, 2004).

Columns and labels:
Coagulation factor X [1] = biological target: T1, Coagulation factor X (Homo sapiens, UniProt P00742); assay: In vitro inhibitory activity against human coagulation factor X
Coagulation factor X [2] = biological target: T1, Coagulation factor X; assay: Binding affinity for human Coagulation factor X
[3] = In vitro anticoagulant potency measured in human plasma by thrombin generation (TG) assay expressed as 2 x TG; type: functional
[4] = (§1) Volume of distribution in rat; type: ADME, organism-based; details: in vivo
[5] = (§2) Clearance rate in rat; type: ADME, organism-based; details: in vivo
[6] = Bioavailability in rat; type: ADME, organism-based; details: in vivo
[7] = (§3) Half-life determined in rat; type: ADME, organism-based; details: in vivo
[8] = biological target: Vitamin K-dependent protein C (Homo sapiens, UniProt P04070); assay: Inhibitory activity against activated protein C was determined
Kallikrein-1 = Kallikrein-1 (Homo sapiens, UniProt P06870); assay: Inhibitory activity of compound against kallikrein
Oryctolagus cuniculus [9] = assay: In vivo inhibition of thrombus accretion at a plasma level of 4.5 […] in the rabbit deep vein thrombosis (DVT) model; type: functional
Oryctolagus cuniculus [10] = assay: In vivo inhibition of thrombus accretion at a plasma level of 3.7 […] in the rabbit deep vein thrombosis (DVT) model; type: functional
Prothrombin = Prothrombin (Homo sapiens, UniProt P00734); assay: Inhibitory activity of compound against thrombin
[11] = biological target: Tissue-type plasminogen activator (Homo sapiens, UniProt P00750); assay: Inhibitory activity of compound against tissue type plasminogen activator
Serine protease 1 = Serine protease 1 (Homo sapiens, UniProt P07477); assay: Inhibitory activity of compound against trypsin
[12] = biological target: Plasminogen (Homo sapiens) (UniProt P00747); assay: Inhibitory activity of compound against plasmin
Rattus norvegicus [13] = species: Rattus norvegicus; assay: as §1; type: ADME, organism-based; details: in vivo
Rattus norvegicus [14] = species: Rattus norvegicus; assay: as §2; type: ADME, organism-based; details: in vivo
Rattus norvegicus [15] = species: Rattus norvegicus; assay: as §3; type: ADME, organism-based; details: in vivo
Oryctolagus cuniculus [16] = assay: In vivo inhibition of thrombus accretion at a plasma level of 3.9 […] in the rabbit deep vein thrombosis (DVT) model; type: functional
Oryctolagus cuniculus [17] = assay: In vivo inhibition of thrombus accretion at a plasma level of 4.6 […] in the rabbit deep vein thrombosis (DVT) model; type: functional

Sequence of Kallikrein-1 (P06870 whole entry): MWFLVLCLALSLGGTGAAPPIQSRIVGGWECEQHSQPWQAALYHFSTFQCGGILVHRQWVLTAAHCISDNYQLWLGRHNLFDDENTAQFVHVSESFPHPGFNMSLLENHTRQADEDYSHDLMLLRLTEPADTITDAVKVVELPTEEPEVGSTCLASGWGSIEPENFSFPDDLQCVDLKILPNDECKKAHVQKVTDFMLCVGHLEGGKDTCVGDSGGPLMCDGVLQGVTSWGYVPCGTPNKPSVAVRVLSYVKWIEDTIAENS
T1 sequence (P00742 41-179 limits assumed): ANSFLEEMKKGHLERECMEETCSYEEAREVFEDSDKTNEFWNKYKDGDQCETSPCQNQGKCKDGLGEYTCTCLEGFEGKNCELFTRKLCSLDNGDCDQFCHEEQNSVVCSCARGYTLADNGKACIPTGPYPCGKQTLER
T1 sequence (P00742 235-488 limits assumed): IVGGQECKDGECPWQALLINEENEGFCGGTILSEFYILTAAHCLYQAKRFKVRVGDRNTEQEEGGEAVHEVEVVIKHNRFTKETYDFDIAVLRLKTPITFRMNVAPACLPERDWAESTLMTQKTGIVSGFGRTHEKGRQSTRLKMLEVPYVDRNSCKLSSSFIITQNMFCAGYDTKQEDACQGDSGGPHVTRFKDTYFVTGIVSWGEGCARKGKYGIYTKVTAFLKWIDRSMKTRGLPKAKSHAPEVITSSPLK
Sequence of Plasminogen (Homo sapiens) (P00747 whole entry, looked up): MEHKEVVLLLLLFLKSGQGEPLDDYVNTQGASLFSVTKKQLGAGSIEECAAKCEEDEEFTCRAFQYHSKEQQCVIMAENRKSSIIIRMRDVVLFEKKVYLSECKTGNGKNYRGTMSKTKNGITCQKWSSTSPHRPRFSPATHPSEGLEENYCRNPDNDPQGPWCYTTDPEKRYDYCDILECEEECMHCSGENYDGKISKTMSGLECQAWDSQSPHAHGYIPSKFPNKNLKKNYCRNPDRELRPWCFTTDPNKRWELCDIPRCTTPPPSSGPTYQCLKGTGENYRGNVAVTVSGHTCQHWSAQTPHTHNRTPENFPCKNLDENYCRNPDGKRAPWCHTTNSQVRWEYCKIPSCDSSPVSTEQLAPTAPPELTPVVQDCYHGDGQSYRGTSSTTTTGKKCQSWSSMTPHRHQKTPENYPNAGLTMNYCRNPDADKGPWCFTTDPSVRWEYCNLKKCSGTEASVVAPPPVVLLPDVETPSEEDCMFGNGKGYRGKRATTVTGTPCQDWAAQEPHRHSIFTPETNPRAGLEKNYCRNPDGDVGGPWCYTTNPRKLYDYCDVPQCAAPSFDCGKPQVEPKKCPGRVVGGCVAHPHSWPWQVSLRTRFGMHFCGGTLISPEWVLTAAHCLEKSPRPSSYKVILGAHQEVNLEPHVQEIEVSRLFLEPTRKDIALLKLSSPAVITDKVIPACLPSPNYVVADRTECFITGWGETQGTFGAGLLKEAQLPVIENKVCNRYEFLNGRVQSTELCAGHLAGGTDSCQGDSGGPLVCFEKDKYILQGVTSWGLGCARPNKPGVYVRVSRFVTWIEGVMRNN
Sequence of Tissue-type plasminogen activator (P00750 whole entry): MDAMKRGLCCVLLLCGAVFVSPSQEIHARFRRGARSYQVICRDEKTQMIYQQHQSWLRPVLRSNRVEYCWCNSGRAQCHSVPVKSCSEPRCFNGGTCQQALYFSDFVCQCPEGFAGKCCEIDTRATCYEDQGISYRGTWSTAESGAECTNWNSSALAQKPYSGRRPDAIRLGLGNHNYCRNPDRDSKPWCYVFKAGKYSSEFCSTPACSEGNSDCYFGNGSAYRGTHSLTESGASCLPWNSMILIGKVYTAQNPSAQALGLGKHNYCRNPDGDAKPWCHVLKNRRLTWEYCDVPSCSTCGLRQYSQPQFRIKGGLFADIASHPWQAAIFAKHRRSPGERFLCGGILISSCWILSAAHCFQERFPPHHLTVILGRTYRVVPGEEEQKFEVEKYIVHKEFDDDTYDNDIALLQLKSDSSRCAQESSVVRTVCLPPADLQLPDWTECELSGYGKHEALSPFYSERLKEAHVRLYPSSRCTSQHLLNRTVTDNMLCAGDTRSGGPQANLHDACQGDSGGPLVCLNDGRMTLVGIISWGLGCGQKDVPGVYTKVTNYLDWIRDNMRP
Sequence of Vitamin K-dependent protein C (P04070 43-197 limits assumed): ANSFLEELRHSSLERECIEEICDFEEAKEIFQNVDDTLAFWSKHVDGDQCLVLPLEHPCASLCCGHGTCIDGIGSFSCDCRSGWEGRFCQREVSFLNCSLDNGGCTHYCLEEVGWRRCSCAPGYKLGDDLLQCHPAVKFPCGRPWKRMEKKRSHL
Sequence of Vitamin K-dependent protein C (P04070 212-461 limits assumed): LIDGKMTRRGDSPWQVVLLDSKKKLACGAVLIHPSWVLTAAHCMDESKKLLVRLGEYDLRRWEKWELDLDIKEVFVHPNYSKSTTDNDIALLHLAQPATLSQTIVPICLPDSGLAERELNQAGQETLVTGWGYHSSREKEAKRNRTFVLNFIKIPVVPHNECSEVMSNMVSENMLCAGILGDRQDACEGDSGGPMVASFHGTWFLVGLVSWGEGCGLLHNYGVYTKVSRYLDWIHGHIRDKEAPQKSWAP
Sequence of Serine protease 1 (P07477 whole entry): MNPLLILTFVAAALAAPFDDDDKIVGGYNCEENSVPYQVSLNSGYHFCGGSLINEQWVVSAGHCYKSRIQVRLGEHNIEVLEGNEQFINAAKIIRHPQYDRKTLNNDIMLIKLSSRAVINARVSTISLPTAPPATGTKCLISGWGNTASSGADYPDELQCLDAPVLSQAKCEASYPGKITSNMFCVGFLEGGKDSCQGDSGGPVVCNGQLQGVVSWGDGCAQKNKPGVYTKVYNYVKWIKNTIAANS

SMILES	IC50 (Coagulation factor X [1])	Activity [3]	further results
Cc1cc(C(=O)Nc2ccc(C(=N)N3CCCCC3)cc2F)n(-c2ccc3cc(Cl)ccc3c2)n1	7 nM	–	–
Cc1cc(C(=O)Nc2ccc(C3=NCCN3C)cc2F)n(-c2ccc3cc(Cl)ccc3c2)n1	8 nM	0.91 µM	Ki (Coagulation factor X [2]): 1 nM
Cc1cc(C(=O)Nc2ccc(C(=N)N)cc2F)n(-c2cc3ccccc3cc2F)n1	777 nM	–	–
CNC(=N)c1ccc(NC(=O)c2cc(C)nn2-c2cc3ccccc3cc2F)c(F)c1	114 nM	–	–
CN(C)C(=N)c1ccc(NC(=O)c2cc(C(F)(F)F)nn2-c2ccc3cc(Cl)ccc3c2)c(F)c1	1 nM	1.8 µM	Ki (Coagulation factor X [2]): 0.9 nM
Cc1cc(C(=O)Nc2ccc(C(=N)N(C)C)cc2F)n(-c2cc3ccccc3cc2S(C)(=O)=O)n1	12 nM	0.53 µM	Ki (Coagulation factor X [2]): 2.8 nM
N=C(c1ccc(NC(=O)c2nnnn2-c2ccc3cc(Cl)ccc3c2)c(F)c1)N1CCCC1	7 nM	–	–
COCCN(C)C(=N)c1ccc(NC(=O)c2cc(C)nn2-c2cc3ccccc3cc2F)c(F)c1	110 nM	–	–
Cc1cc(C(=O)Nc2ccc(C(=N)N(C)C)s2)n(-c2cc3ccccc3cc2F)n1	511 nM	–	–
CN1CCN=C1c1ccc(NC(=O)c2nnnn2-c2cc3ccccc3cc2F)c(F)c1	110 nM	–	–
Cc1cc(C(=O)Nc2ccc(C(=N)N3CCCCC3)cc2F)n(-c2cc3ccccc3cc2F)n1	8 nM	1.5 µM	Ki (Coagulation factor X [2]): 5.2 nM
Cc1cc(C(=O)Nc2ccc(C(=N)N(C)C)cc2F)n(-c2ccc3cc(Cl)ccc3c2)n1	5 nM	0.83 µM	Vd [4]: 82.5 L/kg; clearance [5]: 55.9 mL/min/kg; bioavailability [6]: 13.8%; half-life [7]: 1080 min; IC50 [8]: > 10 µM; Ki (Coagulation factor X [2]): 0.7 nM; IC50 (Kallikrein-1): > 10 µM; Inhibition (Oryctolagus cuniculus [9]): 56%; Inhibition (Oryctolagus cuniculus [10]): 20%; IC50 (Prothrombin): > 10 µM; IC50 [11]: > 10 µM; IC50 (Serine protease 1): > 10 µM; IC50 [12]: > 10 µM
N=C(c1ccc(NC(=O)c2cc(C(F)(F)F)nn2-c2cc3ccccc3cc2F)c(F)c1)N1CCCC1	10 nM	–	–
Cc1cc(C(=O)Nc2ccc(C(=N)N3CCCC3)cc2F)n(-c2ccc3cc(Cl)ccc3c2)n1	7 nM	–	–
Cc1cc(C(=O)Nc2ccc(C3=NCCN3C)cc2F)n(-c2cc3ccccc3cc2F)n1	18 nM	1.7 µM	Vd [4]: 7.6 L/kg; clearance [5]: 49.3 mL/min/kg; bioavailability [6]: 43.9%; half-life [7]: 108 min; Ki (Coagulation factor X [2]): 8 nM
Cc1cc(C(=O)Nc2ccc(C(=N)N(C)C)cc2F)n(-c2cc3ccccc3cc2F)n1	–	1 µM	Vd (Rattus norvegicus [13]): 49.4 L/kg; CL (Rattus norvegicus [14]): 54.3 mL/min/kg; bioavailability [6]: 24.3%; T1/2 (Rattus norvegicus [15]): 3.1 h; IC50 [8]: > 10 µM; Ki (Coagulation factor X [2]): 3.9 nM; IC50 (Kallikrein-1): > 10 µM; IC50 (Prothrombin): > 10 µM; IC50 [11]: > 10 µM; IC50 (Serine protease 1): > 10 µM; IC50 [12]: > 10 µM
CCCN(C)C(=N)c1ccc(NC(=O)c2cc(C)nn2-c2cc3ccccc3cc2F)c(F)c1	34 nM	–	–
Cc1cc(C(=O)Nc2ccc(C(=N)N3CCCC3)cc2F)n(-c2cc3ccccc3cc2F)n1	6 nM	1.4 µM	Ki (Coagulation factor X [2]): 4.1 nM
CN(C)C(=N)c1ccc(NC(=O)c2nnnn2-c2ccc3cc(Cl)ccc3c2)c(F)c1	2 nM	2.5 µM	Ki (Coagulation factor X [2]): 0.7 nM
CCN(C)C(=N)c1ccc(NC(=O)c2cc(C)nn2-c2cc3ccccc3cc2F)c(F)c1	22 nM	–	–

SMILES	IC50 (Coagulation factor X [1])	Activity [3]	further results
N=C(c1ccc(NC(=O)c2nnnn2-c2ccc3cc(Cl)ccc3c2)c(F)c1)N1CCCCC1	8 nM	–	–
N=C(c1ccc(NC(=O)c2cc(C(F)(F)F)nn2-c2ccc3cc(Cl)ccc3c2)c(F)c1)N1CCCCC1	4 nM	–	–
Cc1cc(C(=O)Nc2ccc(C(=N)N3CCCCCC3)cc2F)n(-c2cc3ccccc3cc2F)n1	50 nM	–	–
CN(C)C(=N)c1ccc(NC(=O)c2cc(C(F)(F)F)nn2-c2cc3ccccc3cc2F)c(F)c1	–	1.4 µM	Vd [4]: 11 L/kg; clearance [5]: 14.7 mL/min/kg; bioavailability [6]: 46.9%; half-life [7]: 528 min; IC50 [8]: > 10 µM; IC50 (Kallikrein-1): > 10 µM; Inhibition (Oryctolagus cuniculus [16]): 20%; Inhibition (Oryctolagus cuniculus [17]): 51%; IC50 (Prothrombin): > 10 µM; IC50 [11]: > 10 µM; IC50 (Serine protease 1): > 10 µM; IC50 [12]: > 10 µM
Cc1cc(C(=O)Nc2cccc(C(=N)N(C)C)c2)n(-c2cc3ccccc3cc2F)n1	479 nM	–	–
Cc1cc(C(=O)Nc2cc(C(=N)N(C)C)cs2)n(-c2cc3ccccc3cc2F)n1	377 nM	–	–
Cc1cc(C(=O)Nc2ccc(C(=N)N(C)Cc3ccccc3)cc2F)n(-c2cc3ccccc3cc2F)n1	80 nM	–	–
Cc1cc(C(=O)Nc2ccc(C3=NCCN3C)cc2F)n(-c2cc3ccccc3cc2S(C)(=O)=O)n1	14 nM	0.78 µM	Ki (Coagulation factor X [2]): 3.9 nM
N=C(c1ccc(NC(=O)c2cc(C(F)(F)F)nn2-c2ccc3cc(Cl)ccc3c2)c(F)c1)N1CCCC1	2 nM	–	–
Cc1cc(C(=O)Nc2ccc(C(=N)N3CCCC3)cc2F)n(-c2cc3ccccc3cc2S(C)(=O)=O)n1	15 nM	–	–
Cc1cc(C(=O)Nc2ccc(C(=N)N3CCCCC3)cc2F)n(-c2cc3ccccc3cc2S(C)(=O)=O)n1	28 nM	–	–
CN1CCN=C1c1ccc(NC(=O)c2cc(C(F)(F)F)nn2-c2ccc3cc(Cl)ccc3c2)c(F)c1	2 nM	4.5 µM	Ki (Coagulation factor X [2]): 1.2 nM
N=C(c1ccc(NC(=O)c2cc(C(F)(F)F)nn2-c2cc3ccccc3cc2F)c(F)c1)N1CCCCC1	11 nM	–	–
Cc1cc(C(=O)Nc2ccc(C(=N)N3CCOCC3)cc2F)n(-c2cc3ccccc3cc2F)n1	134 nM	–	–
N=C(c1ccc(NC(=O)c2nnnn2-c2cc3ccccc3cc2F)c(F)c1)N1CCCC1	24 nM	–	–
N=C(c1ccc(NC(=O)c2nnnn2-c2cc3ccccc3cc2F)c(F)c1)N1CCCCC1	76 nM	–	–
CN(C)C(=N)c1ccc(NC(=O)c2nnnn2-c2cc3ccccc3cc2F)c(F)c1	16 nM	–	–
CN1CCN=C1c1ccc(NC(=O)c2nnnn2-c2ccc3cc(Cl)ccc3c2)c(F)c1	15 nM	–	–
Cc1cc(C(=O)Nc2ccc(C(=N)N(C)CCN(C)C)cc2F)n(-c2cc3ccccc3cc2F)n1	48 nM	–	–
Cc1cc(C(=O)Nc2ccc(C(=N)N3CCC3)cc2F)n(-c2cc3ccccc3cc2F)n1	50 nM	–	–
